Measurements reported in patent publication US7576094B2, “Spiro derivatives as lipoxygenase inhibitors” (Eli Lilly and Company, priority 2004, dated 2009).

Columns and labels:
[1] = biological target: T1, porcine leukocyte 12/15-Lipoxygenase (Sus scrofa, UniProt P16469); assay: 12/15-Lipoxygenase Enzyme Assay; format: biochemical; details: 70 μM arachidonic acid, 10 minute incubation at room temperature, FOX reagent, absorbance at 620 nm; read-out: inhibition of 12/15-Lipoxygenase with an IC50
T1 sequence (P16469 1-663): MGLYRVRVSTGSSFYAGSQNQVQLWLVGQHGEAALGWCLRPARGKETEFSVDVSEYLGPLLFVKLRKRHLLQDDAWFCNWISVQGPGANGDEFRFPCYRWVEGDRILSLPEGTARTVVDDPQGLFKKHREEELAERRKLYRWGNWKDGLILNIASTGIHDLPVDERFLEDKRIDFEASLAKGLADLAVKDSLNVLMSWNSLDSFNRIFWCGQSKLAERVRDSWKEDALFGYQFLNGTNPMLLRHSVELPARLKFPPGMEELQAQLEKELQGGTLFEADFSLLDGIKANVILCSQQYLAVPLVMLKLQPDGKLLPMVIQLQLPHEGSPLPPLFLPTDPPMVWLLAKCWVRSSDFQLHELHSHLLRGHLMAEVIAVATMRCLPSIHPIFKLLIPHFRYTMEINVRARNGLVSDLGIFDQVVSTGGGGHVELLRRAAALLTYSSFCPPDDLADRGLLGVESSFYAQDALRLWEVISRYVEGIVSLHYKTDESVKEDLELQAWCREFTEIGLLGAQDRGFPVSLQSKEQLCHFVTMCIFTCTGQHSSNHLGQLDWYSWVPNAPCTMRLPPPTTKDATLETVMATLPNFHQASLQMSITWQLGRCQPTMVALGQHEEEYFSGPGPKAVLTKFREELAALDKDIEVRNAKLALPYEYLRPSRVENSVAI
Excerpt: This procedure was used for measuring the enzymatic activity of porcine leukocyte 12/15-Lipoxygenase using a […] method based on the ferric oxidation of xylenol orange.
• 96 well flat bottom microfilter plates (VWR, Catalog # 62402-933 9295) • Lipoxygenase screening assay buffer (Cayman, Catalog # 760710) • Porcine leukocyte 12/15-Lipoxygenase (Cayman, Catalog # 60300) • Arachidonic Acid (Sigma, Catalog # A3555) • Xylenol orange tetrasodium salt (Aldrich, Catalog # 227854) • Iron (II) sulfate heptahydrate (Sigma, Catalog # F7002) • Sulfuric acid (95-98%) [18M] • Methanol Procedure
Porcine Leukocyte 12/15-Lipoxygenase (Cayman Cat # 60300) was used in this assay. Test compound and/or vehicle was added to 1.3 μL 12/15-Lipoxygenase in 50 mM Tris-HCl buffer, pH 7.4. The reaction was initiated by addition of 70 μM arachidonic acid in Tris-HCl buffer, pH 7.4, and terminated after a 10 minute incubation at room temperature by addition of FOX reagent (25 mM sulfuric acid, 100 μM xylenol orange, 100 μM iron (II) sulfate, methanol:water 9:1). The yellow color of acidified xylenol orange was converted to a blue color by the lipid hydroperoxide-mediated oxidation of Fe^2+ ions and the interaction of the resulting Fe^3+ ions with the dye. The complex was allowed to form during a 1 hour incubation at room temperature with shaking. Absorbance of the Fe^3+ complex was then measured at […] using a spectrophotometer.
Negative controls contained enzyme during the incubation step but substrate was not added until after the FOX reagent. Compounds are screened at 5 concentrations in triplicate starting at 10 μM

[2] = biological target: T2, human recombinant 5-Lipoxygenase (Homo sapiens, UniProt P09917); assay: 5-Lipoxygenase Enzyme Assay; format: biochemical; details: 70 μM arachidonic acid, 10 minute incubation at room temperature, FOX reagent, absorbance at 620 nm; read-out: inhibition of 5-Lipoxygenase with an IC50
T2 sequence (P09917 1-674): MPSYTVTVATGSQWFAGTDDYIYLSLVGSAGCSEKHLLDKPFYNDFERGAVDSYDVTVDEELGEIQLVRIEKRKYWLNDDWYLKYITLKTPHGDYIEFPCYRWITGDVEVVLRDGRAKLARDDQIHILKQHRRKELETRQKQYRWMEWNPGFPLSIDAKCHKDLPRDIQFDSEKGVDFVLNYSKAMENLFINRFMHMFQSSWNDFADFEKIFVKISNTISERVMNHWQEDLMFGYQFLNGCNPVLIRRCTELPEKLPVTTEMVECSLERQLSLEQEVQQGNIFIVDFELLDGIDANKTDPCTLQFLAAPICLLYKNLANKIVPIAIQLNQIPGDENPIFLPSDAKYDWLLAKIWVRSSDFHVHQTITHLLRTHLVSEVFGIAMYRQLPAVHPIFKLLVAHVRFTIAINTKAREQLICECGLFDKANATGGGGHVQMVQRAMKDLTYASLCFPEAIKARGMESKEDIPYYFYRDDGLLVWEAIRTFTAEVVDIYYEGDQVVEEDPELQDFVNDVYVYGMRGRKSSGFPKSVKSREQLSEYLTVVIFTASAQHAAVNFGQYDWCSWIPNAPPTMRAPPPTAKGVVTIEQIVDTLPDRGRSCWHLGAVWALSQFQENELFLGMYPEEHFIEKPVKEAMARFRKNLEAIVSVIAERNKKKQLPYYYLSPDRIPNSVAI
Summary of the method: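 Recombinant human 5-LOX in 50 mM Tris-HCl pH 7.4 was preincubated with compound, then 70 μM arachidonic acid was added for 10 min at room temperature. Hydroperoxide was read by FOX reagent (ferric xylenol orange, 1 h complex formation) as absorbance at 620 nm. Five concentrations in triplicate were tested, starting at 10 μM.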

[3] = tested on: release of the leukotriene LTB4 from a neutrophil cell line (MPRO cell line); assay: LTB4-Cell Assay; format: cell-based; details: Mus musculus, 1 h, read-out: inhibition of LTB4 with an EC50
Excerpt: • This procedure was used for measuring the release of the leukotriene LTB4 from a neutrophil cell line using a competitive ELISA technique. Materials and Equipments Materials for Cell Preparation and Experiment • MPRO cell line (ATCC, Catalog # CRL-11422) • Calcium ionophore (A23187) (Sigma, Catalog # C7522) • Nordihydroguaiaretic acid (NDGA) (BioMol ,Catalog # EI101-0001) • Retinoic Acid (all-trans) (ATRA) (Sigma, Catalog # 95152) • Sterile, tissue-culture treated 96-well plates (Corning, Catalog # 3614) Materials for LTB4 ELISA • Precoated (Mouse Anti-Rabbit IgG) EIA 96 Well Strip Plates (Cayman, Catalog # 400004) • Leukotriene B4 AChE Tracer (Cayman Catalog # 420110) • Leukotriene B4 EIA Antiserum (Cayman Catalog # 420112) • Ellman's Reagent (Cayman Catalog # 400050) • EIA Buffer Concentrate (10×) (Cayman Catalog # 400060) • Wash Buffer Concentrate (400×) (Cayman Catalog # 400062) • Plastic plate covers (Cayman Catalog # 400012) Procedure
A mouse promyelocytic cell line (MPRO) was used in this assay. These cells are committed immature neutrophils that can be differentiated into mature neutrophils by treatment with 10 μM all-trans retinoic acid for 72 hours.
Following 72 hours of differentiation, cells were stimulated with 1 μM of a calcium ionophore (A23187) in the presence or absence of test compound or vehicle for 1 hour at 37° C. After this time, supernatant was removed from the cells and the LTB4 levels were determined following manufacturer's instructions, using a Leukotriene B4 EIA kit from Cayman (Cat # 5201 11). The negative controls were media samples from differentiated but un-stimulated cells. The compounds were screened at 5 concentrations in quadruplicate starting at 10 μM.

[4] = tested on: LTB4 production in human whole blood; assay: Inhibition of LTB4 Production in Blood; format: cell-based; details: 1 h, 20 μM A23187, 60 minutes at 37° C., LTB4 in plasma by ELISA, read-out: protection against LTB4 at an EC50
Summary of the method: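 Citrated human whole blood preincubated 15 min at 37 °C with compound (top final 30 μM, 1:3 dilutions, quadruplicate), then stimulated with 20 μM A23187 for 60 min at 37 °C. Plasma LTB4 quantified by ELISA; IC50 from percent inhibition versus vehicle.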

Row | SMILES | IC50 [1] [µM] | IC50 [2] [µM] | EC50 [3] [µM] | EC50 [4] [µM]
1 | Cc1c(O)c(C(C)(C)C)cc2c1CC1(CCC1)CN2c1ccc(O)cn1 [7′-tert-butyl-1′-(5-hydroxypyridin-2-yl)-5′-methyl-2′,4′-dihydro-1′H-spiro[cyclobutane-1,3′-quinolin]-6′-ol] | < 5 |  |  | 
2 | CCCCc1cc(-c2c(C)c(O)c(C)c3c2OC2(CCC2)CC3)no1 [5,7-dimethyl-8-(5-butyl-isoxazol-3-yl)-3,4-dihydrospiro[chromene-2,1′-cyclobutan]-6-ol] |  | < 0.3 | < 5 | < 10
3 | Cc1c(O)c(-c2cc3ccccc3o2)c(C)c2c1CCC(C)(C)O2 [7-(1-benzofuran-2-yl)-2,2,5,8-tetramethylchroman-6-ol] | < 5 |  |  | 
4 | Cc1c(O)cc2c(c1C)N(c1ccc(Cl)cc1)CC1(CCC1)C2O (stereo not drawn) [1′-(4-chlorophenyl)-7′,8′-dimethyl-2′,4′-dihydro-1′H-spiro[cyclobutane-1,3′-quinoline]-4′,6′-diol] | < 5 |  |  | 
5 | CO/N=C1\CC2(CCC2)Sc2cc(C)c(O)c(C)c21 [6′-hydroxy-5′,7′-dimethylspiro[cyclobutane-1,2′-thiochromen]-4′(3′H)-one O-methyloxime] |  | < 0.3 | < 5 | < 10
6 | CCOC1CC2(CCC2)Oc2cc(C)c(O)c(C)c21 (stereo not drawn) [4-ethoxy-5,7-dimethyl-3,4-dihydrospiro[chromene-2,1′-cyclobutan]-6-ol] |  | < 0.3 | < 5 | < 10
7 | CCOC1c2c(C)c(O)c(C)c(C)c2OCC12CCC2 (stereo not drawn) [4-ethoxy-5,7,8-trimethylspiro[chroman-3,1′-cyclobutan]-6-ol] |  | < 0.3 | < 5 | < 10
8 | CCc1cc2c(c(CC)c1O)/C(=N/O)CC1(CCC1)O2 [5,7-diethyl-6-hydroxyspiro[chromene-2,1′-cyclobutan]-4(3H)-one oxime] |  | < 0.3 | < 5 | < 10
9 | Cc1c(O)c(C)c(-c2cnco2)c2c1CCC1(CCC1)O2 [5,7-dimethyl-8-(1,3-oxazol-5-yl)-3,4-dihydrospiro[chromene-2,1′-cyclobutan]-6-ol] |  | < 0.3 | < 5 | < 10
10 | CCO/N=C1\CC2(CCC2)Sc2cc(C)c(O)c(C)c21 [6′-hydroxy-5′,7′-dimethylspiro[cyclobutane-1,2′-thiochromen]-4′(3′H)-one O-ethyloxime] |  | < 0.3 | < 5 | < 10
11 | CCONCc1c(C)c(O)c(C)c2c1OC1(CCC1)CC2 [8-[(ethoxyamino)methyl]-5,7-dimethyl-3,4-dihydrospiro[chromene-2,1′-cyclobutan]-6-ol] |  | < 0.3 | < 5 | < 10
12 | CC(C)c1cc2c(c(C(C)C)c1O)CCC1(CCC1)O2 [5,7-diisopropyl-3,4-dihydrospiro[chromene-2,1′-cyclobutan]-6-ol] |  | < 0.3 | < 5 | < 10
13 | CCONC1CC2(CCC2)Oc2c(C)c(C)c(O)c(C)c21 (stereo not drawn) [4-(ethoxyamino)-5,7,8-trimethyl-3,4-dihydrospiro[chromene-2,1′-cyclobutan]-6-ol] |  | < 0.3 | < 5 | < 10
14 | COCC1=Cc2c(C)c(O)c(C)c(C)c2OC12CCC2 [3-(methoxymethyl)-5,7,8-trimethylspiro[chromene-2,1′-cyclobutan]-6-ol] |  | < 0.3 | < 5 | < 10
15 | CONC1CC2(CCC2)Oc2cc(C)c(O)c(C)c21 (stereo in doubt) [(4S)-4-(methoxyamino)-5,7-dimethyl-3,4-dihydrospiro[chromene-2,1′-cyclobutan]-6-ol] |  | < 0.3 | < 5 | < 10
16 | CONC1CC2(CCC2)Oc2cc(C)c(O)c(C)c21 (stereo not drawn) [4-(methoxyamino)-5,7-dimethyl-3,4-dihydrospiro[chromene-2,1′-cyclobutan]-6-ol] |  | < 0.3 | < 5 | < 10
17 | CONCc1c(C)c(O)c(C)c2c1OC1(CCC1)CC2 [8-[(methoxyamino)methyl]-5,7-dimethyl-3,4-dihydrospiro[chromene-2,1′-cyclobutan]-6-ol] |  | < 0.3 | < 5 | < 10
18 | Cc1c(C)c2c(c(C)c1O)C=C(CO)C1(CCC1)O2 [3-(hydroxymethyl)-5,7,8-trimethylspiro[chromene-2,1′-cyclobutan]-6-ol] |  | < 0.3 | < 5 | < 10
19 | Cc1c(O)cc2c(c1C)OCC1(CC1)C2 [7,8-dimethylspiro[chroman-3,1′-cyclopropan]-6-ol] |  | < 0.3 | < 5 | < 10
20 | Cc1c(C)c2c(c(C)c1O)C(C#N)CC1(CCC1)O2 (stereo not drawn) [6-hydroxy-5,7,8-trimethyl-3,4-dihydrospiro[chromene-2,1′-cyclobutane]-4-carbonitrile] |  | < 0.3 | < 5 | < 10
